The test system of experiment [1] is p-ERK1/2 in MOLM-13 AML cells. Kind of experiment: Phospho-ERK1/2 immunoblot analysis, MOLM-13. The experiment is classed as cell-based. The settings on record: MOLM-13, 3 h treatment; #02 3, 10, 30 μM; RMC-4550 1 μM. As to the method:
Because SHP2 activity is critical for ERK activation, we used phospho-ERK1/2 (p-ERK1/2) as a more direct readout of SHP2 inhibitor efficacy. […] However, a greater effect of #02 was observed after 24 h treatment. […] This p-ERK rebound in MOLM-13 cells treated with RMC-4550 is reminiscent of previously reported data from human hepatoma Hep3B cells treated with SHP099.
Total protein extracts were prepared in modified RIPA lysis buffer (25 mM Tris-HCl, pH 7.4, 10% glycerol, 0.2% Triton™ X-100, 150 mM NaCl, 2 mM Na3VO4, 1 mM EDTA) containing a protease inhibitor cocktail (Roche Applied Science, Indianapolis, IN). Equal amounts of protein were separated on 4-12% (p-ERK1/2 blots) or 4-20% (SHP2 blots) Bis-Tris gels by SDS-PAGE and transferred to nitrocellulose (p-ERK1/2 blots) or 0.2 μm PVDF (SHP2 blots) membranes. Membranes were blocked in 5% dry milk (Bio-Rad, Hercules, CA) in TBS-Tween 20 (0.1% vol/vol; TBS-T) for 1 h at room temperature. Protein-bound membranes were incubated with indicated primary antibody overnight at 4° C. After washing three times with TBS-T, membranes were incubated for 1 h with horseradish peroxidase-conjugated secondary antibody, then visualized by an ECL Prime detection system (GE Healthcare). Immunoblotting experiments were carried out at least three times and representative images are shown. Densitometric quantitation of immunoblots was performed using Image Studio Lite Software. Changes of phosphorylated ERK1/2 to total ERK1/2 rations are expressed as percentage of the vehicle-treated controls. The following antibodies were used: Phospho-Erk1/2 Ab, Cell Signaling, #9101S; total Erk1/2 Ab, Cell Signaling, #9102S; SHP2 Ab, Bethyl, A301-544A, lot #1; GAPDH (14C10) mAb, Cell Signaling, #2118S, lot #14.
(Immunoblotting shows a protein as a band on a membrane.)

The test system of experiment [2] is p-ERK1/2 in U-937 AML cells (SHP2 G60R). Kind of experiment: Phospho-ERK1/2 immunoblot analysis, U-937. It counts as cell-based. The conditions noted are these: U-937, 24 h; #02 1, 3, 10, 30 μM; RMC-4550 1 μM. From the text: (§1) Oncogenic gain-of-function mutations in SHP2 drive leukemogenesis in a significant number of leukemia patients. However, due to their unique mechanism of action, the existing SHP2 allosteric inhibitors lack activity against the most common SHP2 oncogenic variants. Thus, we tested whether #02 can inhibit the growth of leukemia cells expressing oncogenic SHP2 variants. […] Using the U-937 AML cell line, which harbors a G60R oncogenic mutation in SHP2, we treated cells with either #02 or RMC-4550 at various concentrations, ranging from 0.123 to 30 μM (FIG. 4A). […] We also assessed the effects of #02 and RMC-4550 on ERK1/2 activation in the SHP2 mutant U-937 cell line. Similar to the immunoblot experiments described above, U-937 AML cells were treated with either vehicle control (DMSO), #02 (1, 3, 10, or 30 μM), or with RMC-4550 (1 μM) for 24 h and processed for p-ERK1/2 immunoblot analysis (FIG. 4B).
Total protein extracts were prepared in modified RIPA lysis buffer (25 mM Tris-HCl, pH 7.4, 10% glycerol, 0.2% Triton™ X-100, 150 mM NaCl, 2 mM Na3VO4, 1 mM EDTA) containing a protease inhibitor cocktail (Roche Applied Science, Indianapolis, IN). […] Densitometric quantitation of immunoblots was performed using Image Studio Lite Software. Changes of phosphorylated ERK1/2 to total ERK1/2 rations are expressed as percentage of the vehicle-treated controls. […]

In experiment [3] the test system is U-937 AML cells harboring G60R oncogenic mutation in SHP2. In words: Cell viability assay, U-937 (SHP2 G60R). It counts as cell-based. The conditions noted are these: U-937 cells (SHP2 G60R), 0.123 to 30 μM, 3 d.
Excerpt: as §1
(§2) Viability of AML, esophageal carcinoma, and TF-1 cells was assessed using the ATP-depletion assay CellTiter-Glo® (Promega). Cells were harvested at 1×10^6/mL to 2×10^6 cells/mL with cell numbers determined by trypan blue using the Countess Cell counter (Thermo Scientific) and resuspended in culture media. […] Luminescence was read on a Tecan Spark® Multimode Microplate Reader and data analyzed using Graph Pad Prism software.

Experiment [4] concerns patient-derived AML cells. Kind of experiment: Viability of AML patient-derived cells. The settings on record: 10 μM, two patient samples, 2 d, 4 d, or 6 d. It counts as cell-based, human.
Excerpt: Patient-derived AML cells were obtained from Carol Burian and Dr. James Mason (Scripps MD Anderson, La Jolla, CA) under approved IRB protocol 13-6180. Peripheral blood mononuclear cells (PBMCs) were isolated by traditional Ficoll-Paque™ PLUS (17-1440-02, GE Healthcare) centrifugation according to the manufacturer's instructions, and red blood cells were lysed using RBC Lysis Buffer (Alfa Aesar, cat. #J62990). Final PBMCs were resuspended in Bambanker serum-free freezing medium (Wako Pure Chemical Industries, Ltd.) and stored frozen before cell viability was assessed as described below.
as §2, with “media. 3K cells (in […]) were seeded in a 384-well format white, clear bottom microplate (#781098, Greiner) spotted with test compound or vehicle control (DMSO) using an Echo 555 Liquid Handler.” for “media.”

Experiment [5] relates to MLL-AF10 leukemia cells expressing wild-type SHP2. Kind of experiment: Cell viability assay, MLL-AF10 cells expressing wild-type SHP2. It counts as cell-based, mouse. The method, then: (§3) Cell viability assays of SHP099, #01, and #02 against mouse MLL-AF10 leukemia cells were conducted. Two MLL-AF10 cell lines were employed, one expressing wild-type SHP2, and the other expressing E76K mutant SHP2.

Experiment [6] relates to MOLM-13 AML cells (expressing WT SHP2). In words: Cell viability assay (CellTiter-Glo), MOLM-13. The conditions noted are these: regular MOLM-13 cells, 72 h, CRISPR comparison experiment. The experiment is classed as cell-based. As to the method: (§4) Next, we performed an 11-day colony formation assay with TNBC cells treated with #02 or SHP099 at 5, 10, or 20 μM (FIG. 3D).
Finally, we evaluated the selectivity of our top two compounds, #01 and #02, on MOLM-13 AML cells in which SHP2 was depleted using CRISPR-Cas9 knock-out (KO). High-efficiency Cas9-editing MOLM-13 cells were generated by transducingMOLM-13 cells with a Cas9 lentiviral construct. Stable clones were tested for editing efficiency by performing TIDE analysis (45), and these MOLM13-Cas9 cells were transduced with a lentiviral construct containing an AAVS1 single guide RNA (sgRNA) and an mCherry reporter for bulk-sorting of cells with successful AAVS1 editing. […] Cells were treated with inhibitors at various concentrations (ranging from […] to 58 nM) or vehicle control (DMSO) for 72 h, before cell viability was assessed.
Viability of AML, esophageal carcinoma, and TF-1 cells was assessed using the ATP-depletion assay CellTiter-Glo® (Promega). Cells were harvested at 1×10^6/mL to 2×10^6 cells/mL with cell numbers determined by trypan blue using the Countess Cell counter (Thermo Scientific) and resuspended in culture media. […] Luminescence was read on a Tecan Spark® Multimode Microplate Reader and data analyzed using Graph Pad Prism software. […]
Background: In ATP-based viability assays light output follows the ATP content of the culture.

Experiment [7] has as its system MLL-AF10 leukemia cells expressing E76K mutant SHP2. Kind of experiment: Cell viability assay, MLL-AF10 cells expressing E76K mutant SHP2. It counts as cell-based, mouse. As to the method:
as §3

Experiment [8] has as its system TNBC cells (BT-549 and MDA-MB-468). In words: 11-day colony formation assay. The experiment is classed as cell-based. The conditions noted are these: 5, 10, or 20 μM, 11 days. As to the method: as §4
MDA-MB-468 and […] triple-negative breast cancer cells were maintained in DMEM+10% FBS supplemented with 1× Penicillin-Streptomycin/L-Glutamine (Omega Scientific). 1.5K cells (in […]) were seeded per well of a standard 24-well tissue culture plate (Falcon) and allowed to adhere for 24 h, before the addition of drug(s) as described. After a further 96 h, media was replaced with fresh media containing the same test compounds and concentrations. After 11 days, media was removed and cells stained with 0.5% Crystal Violet (in 20% methanol) for 20 min with agitation @ 80 rpm. Stain was removed and plates with stained cells were washed by being submerged in excess deionized water and allowed to air dry overnight before imaging.

Experiment [9] has as its system MOLM-13-Cas9-mCherry cells with SHP2 KO. Kind of experiment: SHP2 CRISPR-Cas9 knockout inhibitor selectivity assay (cell viability). It counts as cell-based. The conditions noted are these: MOLM-13-Cas9-mCherry SHP2 KO cells, 72 h. The method, then: Finally, we evaluated the selectivity of our top two compounds, #01 and #02, on MOLM-13 AML cells in which SHP2 was depleted using CRISPR-Cas9 knock-out (KO). High-efficiency Cas9-editing MOLM-13 cells were generated by transducingMOLM-13 cells with a Cas9 lentiviral construct. Stable clones were tested for editing efficiency by performing TIDE analysis (45), and these MOLM13-Cas9 cells were transduced with a lentiviral construct containing an AAVS1 single guide RNA (sgRNA) and an mCherry reporter for bulk-sorting of cells with successful AAVS1 editing. SHP2 KO was achieved by transducing MOLM-13-Cas9-mCherry cells with a lentivirus containing SHP2 dual sgRNAs, resulting in ˜80% reduction of SHP2 protein levels (FIG. 3G). #01, #02, and the SHP2 allosteric inhibitor SHP099 were tested in parallel on regular MOLM-13 cells (expressing WT SHP2) and MOLM-13-Cas9-mCherry cells with SHP2 KO. Cells were treated with inhibitors at various concentrations (ranging from […] to 58 nM) or vehicle control (DMSO) for 72 h, before cell viability was assessed.
High-efficiency Cas9-editing MOLM-13 cells were generated by transducing MOLM-13 cells with the pLenti-Cas9-blasticidin construct (Addgene plasmid #52962) and selecting single stable clones using flow-sorting. Clones were then tested for editing efficiency by performing TIDE analysis (45). These MOLM13-Cas9 cells were then transduced with a lentiviral construct containing an AAVS sgRNA and an mCherry reporter out of frame and downstream of an AAVS sgRNA targeting site. […]
For SHP2 KO, dual sgRNAs targeting SHP2 were cloned in the pLentiGuide puro vector (Addgene plasmid #52963) using a published protocol (50). […] SHP2 KO was evaluated by immunoblotting. […] For SHP2 KO, MOLM-13-Cas9-mCherry cells were seeded in nontreated 6-well-plates ([…] in 2.5 mL), with cell numbers determined by trypan blue using the Countess Cell counter (Thermo Scientific). […] Cell viability was assessed using the ATP-depletion assay CellTiter-Glo® (Promega) as described above, and data were analyzed using GraphPad Prism software.

The subject of experiment [10] is MDA-MB-468 triple-negative breast cancer cells. Kind of experiment: TNBC cell viability assay (CellTiter-Glo), MDA-MB-468. The conditions noted are these: MDA-MB-468 cells, various concentrations. It counts as cell-based. As to the method:
as §4
(§5) Triple-negative breast cancer cell viability was assessed using the ATP-depletion assay CellTiter-Glo (Promega). Briefly, 2.5K cells in […] media (RPMI+10% FBS+1× Penicillin-Streptomycin (Omega Scientific)) were seeded per well of a 384-well tissue culture treated plate (Greiner). 25 nL of 1000× test compound were added using a Labcyte Echo acoustic dispenser and the cells incubated for 5 days before addition of […] of CellTiter-Glo reagent as described by the manufacturer. Luminescence was detected on a BioTek Synergy 2 microplate reader and the values normalized to those of vehicle (DMSO) treated controls before being plotted using GraphPad Prism.

In experiment [11] the test system is BT-549 triple-negative breast cancer cells. In words: TNBC cell viability assay (CellTiter-Glo), BT-549. It counts as cell-based. The conditions noted are these: BT-549 cells, various concentrations. The method, then:
as §4, §5

The values that follow come from patent publication US20250026741A1, “INHIBITORS OF THE ONCOGENIC SHP2 PHOSPHATASE AND USES THEREOF” (Sanford Burnham Prebys Medical Discovery Institute, priority 2021, published 2025).

For the compound `Cc1nc(N2CCC3(CC2)CO[C@@H](C)[C@H]3N)c(CO)nc1-c1cccc(Cl)c1Cl` [RMC-4550, reference compound], the entries for the “ERK1/2 activation (p-ERK1/2 levels)” value in [1] and in experiment [2] were “highly effective in impeding ERK1/2 activation” and “a decrease in p-ERK1/2 levels was not detectable”, respectively. Besides, the IC50 (as a rule, the point on the concentration scale where inhibition reaches its midpoint) in experiment [3] is 33 µM. For the same compound, the “effect on growth of patient-derived AML samples” value in experiment [4] is recorded as “only affected the growth of sample 2”.
For `CC1(N)CCN(c2cnc(-c3cccc(Cl)c3Cl)c(N)n2)CC1` [SHP099, reference compound], the IC50 in experiment [5] is 4 µM; in [6], 9.4 µM. For the same compound, in experiment [7], the “cell viability IC50” value was “insufficient for an IC50 value to be determined”. Further, in experiment [8], the “effect on colony formation” value is “very weak effect on colony formation”. In addition, in experiment [9], the “effect on viability of SHP2 KO cells” value was “either no effect, or a greatly reduced effect”. The “effect on TNBC cell viability” value in [10] and in experiment [11] was “very minor effect on TNBC cell viability” in each case.
